# Where two headings read alike, the source gives them in different places.
# Columns and labels:
# [1] = tested on: HRV1A; test: microbe, parasite or virus in culture; conditions: Human rhinovirus sp.; for activity at 0.03 µM / activity at 0.1 µM / activity at 0.31 µM / activity at 0.93 µM / activity at 2.78 µM / activity at 8.33 µM / activity at 25 µM: M-HeLa, 7 h; for activity at 0.03 µM: read-out: HRV1A infection (dsRNA), 0.03 µM; for activity at 0.1 µM: read-out: HRV1A infection (dsRNA), 0.10 µM; for activity at 0.31 µM: read-out: HRV1A infection (dsRNA), 0.31 µM; for activity at 0.93 µM: read-out: HRV1A infection (dsRNA), 0.93 µM; for activity at 2.78 µM: read-out: HRV1A infection (dsRNA), 2.78 µM; for activity at 8.33 µM: read-out: HRV1A infection (dsRNA), 8.33 µM; for activity at 25 µM: read-out: HRV1A infection (dsRNA), 25.00 µM
# [2] = tested on: HRV1A; conditions: for relative infection: n=2
# [3] = tested on: CVA21; conditions: n=2
# [4] = tested on: CVB3; conditions: n=2
# [5] = tested on: HRV16; conditions: n=2
# [6] = tested on: influenza virus (strain A/Puerto Rico/8/34/H1N1 depicted PR8); test: microbe, parasite or virus in culture; conditions: unidentified influenza virus, A549, read-out: IC50 (PR8)
# [7] = tested on: HRV14; conditions: n=2
# [8] = tested on: HRV2; conditions: n=2
# [9] = tested on: HRV16; test: microbe, parasite or virus in culture; conditions: Human rhinovirus sp., HRV16, HeLa, read-out: IC50 (HRV16)
# [10] = tested on: CVB4; conditions: n=2
# [11] = tested on: HRV2; test: microbe, parasite or virus in culture; conditions: Human rhinovirus sp., HRV2, HeLa, read-out: IC50 (HRV2)
# [12] = tested on: HRV14; test: microbe, parasite or virus in culture; conditions: Human rhinovirus sp., HRV14, HeLa, read-out: IC50 (HRV14)
# [13] = tested on: CVA21; test: microbe, parasite or virus in culture; conditions: Coxsackievirus, CVA21, HeLa, read-out: IC50 (CVA21)
smiles,measurement,setting,value
COc1ccc(Cl)cc1C(=O)Nc1cc([N+](=O)[O-])ccc1Cl [TVB-1330],activity at 0.03 µM,[1],101%
same,activity at 0.1 µM,[1],103%
same,activity at 0.31 µM,[1],99%
same,activity at 0.93 µM,[1],97%
same,activity at 2.78 µM,[1],101%
same,activity at 8.33 µM,[1],105%
same,activity at 25 µM,[1],111%
same,"antiviral activity against HRV1A (structure-activity study, in words)",[2],reduced antiviral efficacy
COc1c(C)cccc1C(=O)Nc1ccc([N+](=O)[O-])cc1Cl [TVB-1324],activity at 0.03 µM,[1],104%
same,activity at 0.1 µM,[1],105%
same,activity at 0.31 µM,[1],98%
same,activity at 0.93 µM,[1],99%
same,activity at 2.78 µM,[1],88%
same,activity at 8.33 µM,[1],94%
same,activity at 25 µM,[1],107%
same,"antiviral activity against HRV1A (structure-activity study, in words)",[2],eliminated antiviral activity
COC(=O)c1ccc(Cl)c(NC(=O)c2ccccc2OC)c1 [TVB-1325],activity at 0.03 µM,[1],91%
same,activity at 0.1 µM,[1],97%
same,activity at 0.31 µM,[1],86%
same,activity at 0.93 µM,[1],95%
same,activity at 2.78 µM,[1],83%
same,activity at 8.33 µM,[1],73%
same,activity at 25 µM,[1],80%
same,"antiviral activity against HRV1A (structure-activity study, in words)",[2],reduced antiviral efficacy
CCOc1ccccc1C(=O)Nc1ccc(Cl)cc1Cl [TVB-1331],activity at 0.03 µM,[1],119%
same,activity at 0.1 µM,[1],118%
same,activity at 0.31 µM,[1],112%
same,activity at 0.93 µM,[1],107%
same,activity at 2.78 µM,[1],108%
same,activity at 8.33 µM,[1],106%
same,activity at 25 µM,[1],113%
same,"antiviral activity against HRV1A (structure-activity study, in words)",[2],eliminated antiviral activity
CCOc1ccccc1C(=O)Nc1ccc([N+](=O)[O-])cc1Cl [TVB-1328],activity at 0.03 µM,[1],99%
same,activity at 0.1 µM,[1],90%
same,activity at 0.31 µM,[1],86%
same,activity at 0.93 µM,[1],89%
same,activity at 2.78 µM,[1],90%
same,activity at 8.33 µM,[1],95%
same,activity at 25 µM,[1],107%
same,"antiviral activity against HRV1A (structure-activity study, in words)",[2],eliminated antiviral activity
CS(=O)(=O)c1ccc(NC(=O)c2cc(Cl)ccc2O)c(Cl)c1 [TVB-1338],relative infection,[3]; 0.1 µM,1.02
same,relative infection,[3]; 0.3 µM,1.05
same,relative infection,[3]; 0.9 µM,1.03
same,relative infection,[3]; 2.8 µM,1.05
same,relative infection,[3]; 8.3 µM,1.06
same,relative infection,[3]; 25.0 µM,0.81
same,relative infection,[4]; 0.1 µM,0.97
same,relative infection,[4]; 0.3 µM,1.10
same,relative infection,[4]; 0.9 µM,1.09
same,relative infection,[4]; 2.8 µM,1.05
same,relative infection,[4]; 8.3 µM,0.94
same,relative infection,[4]; 25.0 µM,0.94
same,relative infection,[5]; 0.1 µM,1.09
same,relative infection,[5]; 0.3 µM,1.11
same,relative infection,[5]; 0.9 µM,1.15
same,relative infection,[5]; 2.8 µM,1.13
same,relative infection,[5]; 8.3 µM,1.02
same,relative infection,[5]; 25.0 µM,0.67
same,IC50,[6],42.9 µM
same,relative infection,[7]; 0.1 µM,1.07
same,relative infection,[7]; 0.3 µM,1.12
same,relative infection,[7]; 0.9 µM,1.20
same,relative infection,[7]; 2.8 µM,1.17
same,relative infection,[7]; 8.3 µM,1.13
same,relative infection,[7]; 25.0 µM,0.62
same,relative infection,[8]; 0.1 µM,1.05
same,relative infection,[8]; 0.3 µM,1.11
same,relative infection,[8]; 0.9 µM,1.12
same,relative infection,[8]; 2.8 µM,1.13
same,relative infection,[8]; 8.3 µM,1.12
same,relative infection,[8]; 25.0 µM,0.76
same,activity at 0.03 µM,[1],123%
same,activity at 0.1 µM,[1],106%
same,activity at 0.31 µM,[1],109%
same,activity at 0.93 µM,[1],105%
same,activity at 2.78 µM,[1],106%
same,activity at 8.33 µM,[1],111%
same,activity at 25 µM,[1],112%
same,IC50,[9],~26.9 µM
same,relative infection,[10]; 0.1 µM,1.00
same,relative infection,[10]; 0.3 µM,1.02
same,relative infection,[10]; 0.9 µM,1.06
same,relative infection,[10]; 2.8 µM,1.15
same,relative infection,[10]; 8.3 µM,1.02
same,relative infection,[10]; 25.0 µM,0.51
same,"antiviral activity against HRV1A (structure-activity study, in words)",[2],eliminated antiviral activity
same,relative infection,[2]; 0.1 µM,1.02
same,relative infection,[2]; 0.3 µM,0.96
same,relative infection,[2]; 0.9 µM,1.07
same,relative infection,[2]; 2.8 µM,1.12
same,relative infection,[2]; 8.3 µM,1.11
same,relative infection,[2]; 25.0 µM,0.95
COc1ccccc1C(=O)Nc1ccc([N+](=O)[O-])cc1Cl [TVB-1333],activity at 0.03 µM,[1],112%
same,activity at 0.1 µM,[1],99%
same,activity at 0.31 µM,[1],107%
same,activity at 0.93 µM,[1],92%
same,activity at 2.78 µM,[1],84%
same,activity at 8.33 µM,[1],157%
same,activity at 25 µM,[1],207%
same,"antiviral activity against HRV1A (structure-activity study, in words)",[2],eliminated antiviral activity
COc1ccccc1C(=O)Nc1ccc(C(F)(F)F)cc1Cl [TVB-1323],activity at 0.03 µM,[1],101%
same,activity at 0.1 µM,[1],95%
same,activity at 0.31 µM,[1],97%
same,activity at 0.93 µM,[1],97%
same,activity at 2.78 µM,[1],106%
same,activity at 8.33 µM,[1],108%
same,activity at 25 µM,[1],113%
same,"antiviral activity against HRV1A (structure-activity study, in words)",[2],reduced antiviral efficacy
Nc1ccc(NC(=O)c2cc(Cl)ccc2O)c(Cl)c1 [TVB-1335],activity at 0.03 µM,[1],109%
same,activity at 0.1 µM,[1],102%
same,activity at 0.31 µM,[1],103%
same,activity at 0.93 µM,[1],105%
same,activity at 2.78 µM,[1],98%
same,activity at 8.33 µM,[1],96%
same,activity at 25 µM,[1],104%
same,"antiviral activity against HRV1A (structure-activity study, in words)",[2],eliminated antiviral activity
COc1ccc(Br)cc1C(=O)Nc1cc([N+](=O)[O-])ccc1Cl [TVB-1337],activity at 0.03 µM,[1],112%
same,activity at 0.1 µM,[1],104%
same,activity at 0.31 µM,[1],107%
same,activity at 0.93 µM,[1],104%
same,activity at 2.78 µM,[1],105%
same,activity at 8.33 µM,[1],111%
same,activity at 25 µM,[1],117%
same,"antiviral activity against HRV1A (structure-activity study, in words)",[2],reduced antiviral efficacy
CCC(=O)Nc1ccc(Cl)c(NC(=O)c2ccccc2OC)c1 [TVB-1327],activity at 0.03 µM,[1],118%
same,activity at 0.1 µM,[1],118%
same,activity at 0.31 µM,[1],110%
same,activity at 0.93 µM,[1],107%
same,activity at 2.78 µM,[1],96%
same,activity at 8.33 µM,[1],107%
same,activity at 25 µM,[1],115%
same,"antiviral activity against HRV1A (structure-activity study, in words)",[2],reduced antiviral efficacy
O=C(Nc1ccc(NS(=O)(=O)c2ccccc2)cc1Cl)c1cc(Cl)ccc1O [TVB-1336],activity at 0.03 µM,[1],102%
same,activity at 0.1 µM,[1],97%
same,activity at 0.31 µM,[1],105%
same,activity at 0.93 µM,[1],105%
same,activity at 2.78 µM,[1],104%
same,activity at 8.33 µM,[1],105%
same,activity at 25 µM,[1],103%
same,"antiviral activity against HRV1A (structure-activity study, in words)",[2],eliminated antiviral activity
O=C(Nc1ccc([N+](=O)[O-])cc1Cl)c1cc(Cl)ccc1OCCOc1ccccc1 [TVB-1329],relative infection,[3]; 0.1 µM,0.86
same,relative infection,[3]; 0.3 µM,0.97
same,relative infection,[3]; 0.9 µM,1.08
same,relative infection,[3]; 2.8 µM,1.13
same,relative infection,[3]; 8.3 µM,1.29
same,relative infection,[3]; 25.0 µM,0.68
same,IC50,[11],5.07 µM
same,relative infection,[4]; 0.1 µM,0.97
same,relative infection,[4]; 0.3 µM,1.06
same,relative infection,[4]; 0.9 µM,1.19
same,relative infection,[4]; 2.8 µM,1.25
same,relative infection,[4]; 8.3 µM,1.07
same,relative infection,[4]; 25.0 µM,1.01
same,relative infection,[5]; 0.1 µM,0.84
same,relative infection,[5]; 0.3 µM,0.98
same,relative infection,[5]; 0.9 µM,1.04
same,relative infection,[5]; 2.8 µM,1.26
same,relative infection,[5]; 8.3 µM,0.99
same,relative infection,[5]; 25.0 µM,0.14
same,IC50,[6],10.3 µM
same,IC50,[12],9.3 µM
same,relative infection,[7]; 0.1 µM,0.86
same,relative infection,[7]; 0.3 µM,0.87
same,relative infection,[7]; 0.9 µM,0.97
same,relative infection,[7]; 2.8 µM,0.86
same,relative infection,[7]; 8.3 µM,0.58
same,relative infection,[7]; 25.0 µM,0.10
same,relative infection,[8]; 0.1 µM,1.03
same,relative infection,[8]; 0.3 µM,1.10
same,relative infection,[8]; 0.9 µM,0.98
same,relative infection,[8]; 2.8 µM,0.68
same,relative infection,[8]; 8.3 µM,0.36
same,relative infection,[8]; 25.0 µM,0.02
same,IC50,"[1]; HeLa, read-out: IC50 (HRV1A)",9.34 µM
same,activity at 0.03 µM,[1],112%
same,activity at 0.1 µM,[1],112%
same,activity at 0.31 µM,[1],119%
same,activity at 0.93 µM,[1],123%
same,activity at 2.78 µM,[1],111%
same,activity at 8.33 µM,[1],47%
same,activity at 25 µM,[1],6%
same,IC50,[13],~26.6 µM
same,relative infection,[10]; 0.1 µM,1.12
same,relative infection,[10]; 0.3 µM,1.28
same,relative infection,[10]; 0.9 µM,1.51
same,relative infection,[10]; 2.8 µM,1.62
same,relative infection,[10]; 8.3 µM,1.33
same,relative infection,[10]; 25.0 µM,0.46
same,"antiviral activity against HRV1A (structure-activity study, in words)",[2],did not diminish the antiviral efficacy compared to niclosamide
same,relative infection,[2]; 0.1 µM,1.00
same,relative infection,[2]; 0.3 µM,1.04
same,relative infection,[2]; 0.9 µM,1.10
same,relative infection,[2]; 2.8 µM,1.02
same,relative infection,[2]; 8.3 µM,0.59
same,relative infection,[2]; 25.0 µM,0.05

# Reference: paper PMC3486884 (PLoS Pathogens, 2012)
